# Organism: Rattus norvegicus
# Experiment: Increase in threshold of bladder-filling volume in rat
# Format: functional
# Details: read-out: MED
smiles,measurement,value
Cc1nc(C#Cc2ccnc(Cl)c2)c(C)n1-c1ccc(F)cc1 [BASIMGLURANT],minimal effective dose,0.03 mg/kg

# Source: ChEMBL document CHEMBL4411314, “Evaluation of Amides, Carbamates, Sulfonamides, and Ureas of 4-Prop-2-ynylidenecycloalkylamine as Potent, Selective, and Bioavailable Negative Allosteric Modulators of Metabotropic Glutamate Receptor 5” (J Med Chem, 2019)
